What follows are compounds tested on Methylococcus capsulatus, Texas (ATCC 19069) (assay: sec-alcohols to ketones by resting cell suspensions). Settings: cells grown on methane.
Format: cell-based
Experimental: (§1) The pH of the nutrient medium was adjusted to 7.0 by the addition of acid or base and 50 ml. samples of the nutrient medium were charged into a plurality of 300 ml. shaker flasks. The shaker flasks were inoculated with an inoculating loop of cells from an agar plate containing homogeneous colonies of the microorganisms on the plate (the purity of the isolates was confirmed by microscopic examination). The isolates had been maintained on methanol (0.4% V/V) agar plates or on agar plates under an atmosphere of methane and air having a 1:1 V/V gas ratio which had been transferred every two weeks. For growth on methanol, the medium was supplemented with 0.4% methanol. For growth on methane, the gaseous phase of the inoculated flasks was replaced with a gas mixture comprised of methane and air having a ratio of 1:1 on a V/V basis. The inoculated flasks were sealed air-tight and were incubated on a rotary shaker of orbital radius 2.5 cm. at 250 rpm and at 30° C. for two days until turbidity in the medium had developed. The cells were harvested by centrifugation at 10,000×g. at 4° C. for 30 minutes. The cell pellet was washed twice with a 0.05 M phosphate buffer at a pH of 7.0 (containing 0.02 M MgCl2). The washed cells were then suspended in a 0.05 M phosphate buffer at pH 7.0.
(§2) A 0.5 ml. sample of each washed cell suspension (2 mg. cells) was put into 10 ml. vials at 4° C. which were sealed with a rubber cap. The gaseous phase of the vials was removed with vacuum and then was replaced with a gas mixture of the substrate reactant (i.e., alkane or secondary alcohol) and oxygen at a 1:1 V/V ratio. (In the case of a liquid substrate, i.e., secondary alcohol, 10 μl of the substrate was put in the 10 ml. vials). […] Samples of product (1-3 μl) were withdrawn periodically with a microsyringe and the products were analyzed by gas chromatography (ionization flame detector column).
(§3) The procedure in Example 1 was repeated wherein a plurality of the methane-utilizing methylotrophic microorganisms were each grown aerobically in a nutrient medium containing methane as the alcohol dehydrogenase enzyme inducer and as the major carbon and energy source for growth. The cells were harvested and washed as described in Example 1. The resting microbial cells of the induced methane-grown methane-utilizing methylotrophic microorganisms were then contacted with C3 -C6 secondary alcohols in a buffered solution by the procedure of Example 1.
(§4) In this example, the procedure in Example 1 was repeated except that a plurality of methane-utilizing methylotrophic microorganisms were each aerobically grown in a methanol-containing nutrient medium instead of a methane-containing medium. The nutrients in the medium were the same as indicated in Example 1 except that 0.4% V/V methanol was used as the alcohol dehydrogenase inducer and major source of carbon and energy for growth. Following growth, the cells were harvested and washed as described in Example 1.
(§5) The resting cells of the induced methanol-grown methylotrophic microorganisms were then contacted with secondary alcohols in a buffered solution by the procedure described in Example 1.

Row | Compound | Conversion Rates, sec-alcohol to corresponding ketone
1 | CCCCC(C)O (stereo not shown) [2-Hexanol, 2-hexanol] | 1.0 μmoles/hr/mg protein
2 | CCC(C)O (stereo not shown) [2-Butanol, 2-butanol] | 0.60 μmoles/hr/mg protein

Same assay, conditions: cells grown on methanol

Row | Compound | Conversion Rates, sec-alcohol to corresponding ketone
3 | CCCCC(C)O (stereo not shown) [2-Hexanol, 2-hexanol] | 1.3 μn moles/hr/mg protein
4 | CCC(C)O (stereo not shown) [2-Butanol, 2-butanol] | 0.70 μn moles/hr/mg protein

The compounds below were run on Methylomonas methanica S1 (NRRL B-11,199) in the same assay as above. Settings: cells grown on methane.
Format: cell-based
Experimental: as §1, §2, §3, §4, §5

Row | Compound | Conversion Rates, sec-alcohol to corresponding ketone
5 | CCCCC(C)O (stereo not shown) [2-Hexanol, 2-hexanol] | 0.01 μmoles/hr/mg protein
6 | CCC(C)O (stereo not shown) [2-Butanol, 2-butanol] | 0.39 μmoles/hr/mg protein

Same assay, conditions: cells grown on methanol

Row | Compound | Conversion Rates, sec-alcohol to corresponding ketone
7 | CCCCC(C)O (stereo not shown) [2-Hexanol, 2-hexanol] | 0.04 μn moles/hr/mg protein
8 | CCC(C)O (stereo not shown) [2-Butanol, 2-butanol] | 0.40 μn moles/hr/mg protein

These compounds were tested on Methylocystis parvus OBBP (NRRL B-11,198) in the same assay as above. Settings: cells grown on methane.
Format: cell-based
Experimental: as §1, §2, §3, §4, §5

Row | Compound | Conversion Rates, sec-alcohol to corresponding ketone
9 | CCCCC(C)O (stereo not shown) [2-Hexanol, 2-hexanol] | 0.065 μmoles/hr/mg protein
10 | CCC(C)O (stereo not shown) [2-Butanol, 2-butanol] | 1.1 μmoles/hr/mg protein

Same assay, conditions: cells grown on methanol

Row | Compound | Conversion Rates, sec-alcohol to corresponding ketone
11 | CCCCC(C)O (stereo not shown) [2-Hexanol, 2-hexanol] | 0.05 μn moles/hr/mg protein
12 | CCC(C)O (stereo not shown) [2-Butanol, 2-butanol] | 1.0 μn moles/hr/mg protein

Each compound was assayed on Methylobacter capsulatus Y (NRRL B-11,201) in the same assay as above. Settings: cells grown on methane.
Format: cell-based
Experimental: as §1, §2, §3, §4, §5

Row | Compound | Conversion Rates, sec-alcohol to corresponding ketone
13 | CCCCC(C)O (stereo not shown) [2-Hexanol, 2-hexanol] | 0.1 μmoles/hr/mg protein
14 | CCC(C)O (stereo not shown) [2-Butanol, 2-butanol] | 0.84 μmoles/hr/mg protein

Same assay, conditions: cells grown on methanol

Row | Compound | Conversion Rates, sec-alcohol to corresponding ketone
15 | CCCCC(C)O (stereo not shown) [2-Hexanol, 2-hexanol] | 0.12 μn moles/hr/mg protein
16 | CCC(C)O (stereo not shown) [2-Butanol, 2-butanol] | 1.5 μn moles/hr/mg protein

The compounds below were run on Methylosinus trichosporium OB3b (NRRL B-11,196) in the same assay as above. Settings: cells grown on methane.
Format: cell-based
Experimental: as §1, §2, §3, §4, §5
(§6) The procedure in Example 1 was repeated except that the methylotrophic microorganisms were each aerobically grown in an alcohol dehydrogenase-inducing growth medium containing methylamine or methyl formate as the alcohol dehydrogenase enzyme inducer and growth substrate instead of methane. The nutrients in the medium were the same as indicated in Example 1 except that 0.4% V/V of the alcohol dehydrogenase-inducer growth substrate was used as the major carbon and energy source. The cells were harvested and washed as described in Example 1. The resting microbial cells were then contacted with C3 -C6 secondary alcohols in a buffered solution by the conversion procedure of Example 1.

Row | Compound | Conversion Rates, sec-alcohol to corresponding ketone
17 | CCCCC(C)O (stereo not shown) [2-Hexanol, 2-hexanol] | 0.07 μmoles/hr/mg protein
18 | CCC(C)O (stereo not shown) [2-Butanol, 2-butanol] | 3.7 μmoles/hr/mg protein

Same assay, conditions: cells grown on methanol

Row | Compound | Conversion Rates, sec-alcohol to corresponding ketone
19 | CCCCC(C)O (stereo not shown) [2-Hexanol, 2-hexanol] | 0.9 μn moles/hr/mg protein
20 | CCC(C)O (stereo not shown) [2-Butanol, 2-butanol] | 4.1 μn moles/hr/mg protein

Same assay, conditions: methyl formate-grown cells

Row | Compound | Conversion Rates, sec-alcohol to corresponding ketone
21 | CCCCC(C)O (stereo not shown) [2-Hexanol, 2-hexanol] | 0.72 μmoles/hr/mg protein
22 | CCC(C)O (stereo not shown) [2-Butanol, 2-butanol] | 4.5 μmoles/hr/mg protein

The compounds below were run on Methylobacterium organophilum XX (ATCC 27886) in the same assay as above. Settings: cells grown on methane.
Format: cell-based
Experimental: as §1, §2, §3, §4, §5, §6

Row | Compound | Conversion Rates, sec-alcohol to corresponding ketone
23 | CCCCC(C)O (stereo not shown) [2-Hexanol, 2-hexanol] | 0.12 μmoles/hr/mg protein
24 | CCC(C)O (stereo not shown) [2-Butanol, 2-butanol] | 2.5 μmoles/hr/mg protein

Same assay, conditions: cells grown on methanol

Row | Compound | Conversion Rates, sec-alcohol to corresponding ketone
25 | CCCCC(C)O (stereo not shown) [2-Hexanol, 2-hexanol] | 1.1 μn moles/hr/mg protein
26 | CCC(C)O (stereo not shown) [2-Butanol, 2-butanol] | 2.8 μn moles/hr/mg protein

Same assay, conditions: methyl formate-grown cells

Row | Compound | Conversion Rates, sec-alcohol to corresponding ketone
27 | CCCCC(C)O (stereo not shown) [2-Hexanol, 2-hexanol] | 0.70 μmoles/hr/mg protein
28 | CCC(C)O (stereo not shown) [2-Butanol, 2-butanol] | 3.5 μmoles/hr/mg protein

Each compound was assayed on cell extracts (NAD+-dependent secondary alcohol dehydrogenase) (assay: sec-alcohols to methyl ketones by cell extracts of yeasts, gas chromatography). Settings: grown on methanol.
Format: biochemical, Hansenula polymorpha ATCC 26,012

Row | Compound | Conversion Rate, sec-alcohol to methyl ketone
29 | CCCCC(C)O (stereo not shown) [2-Hexanol, 2-hexanol] | 0.51 μmoles/hr/mg Protein
30 | CCC(C)O (stereo not shown) [2-Butanol, 2-butanol] | 5.2 μmoles/hr/mg Protein

The compounds below were run on Pseudomonas sp. ATCC 21438 (Facultative) (assay: sec-alcohols to ketones by resting cell suspensions). Settings: methanol-grown cells.
Format: cell-based
Experimental: as §1, §2
(§7) The procedure in Example 1 was repeated except that a plurality of methanol-utilizing methylotrophic microorganisms were each aerobically grown in a methanol-containing nutrient medium instead of a methane-containing medium. The nutrients in the medium were the same as indicated in Example 1 except that 0.4% V/V methanol was used as the alcohol dehydrogenase inducer and as the major carbon and energy source for growth. The cells were harvested and washed as described in Example 1. The resting microbial cells of the induced methanol-grown methanol-utilizing methylotrophic microorganisms were then contacted with C3 -C6 secondary alcohols in a buffered solution by the procedure of Example 1.
as §6

Row | Compound | Conversion Rates, sec-alcohol to corresponding ketone
31 | CCCCC(C)O (stereo not shown) [2-Hexanol, 2-hexanol] | 0.7 μmoles/hr/mg protein
32 | CCC(C)O (stereo not shown) [2-Butanol, 2-butanol] | 3.2 μmoles/hr/mg protein

Same assay, conditions: methyl formate-grown cells

Row | Compound | Conversion Rates, sec-alcohol to corresponding ketone
33 | CCCCC(C)O (stereo not shown) [2-Hexanol, 2-hexanol] | 0.80 μmoles/hr/mg protein
34 | CCC(C)O (stereo not shown) [2-Butanol, 2-butanol] | 3.2 μmoles/hr/mg protein

Same assay, conditions: methylamine-grown cells

Row | Compound | Conversion Rates, sec-alcohol to corresponding ketone
35 | CCCCC(C)O (stereo not shown) [2-Hexanol, 2-hexanol] | 0.07 μmoles/hr/mg protein
36 | CCC(C)O (stereo not shown) [2-Butanol, 2-butanol] | 2.1 μmoles/hr/mg protein

The compounds below were run on Methanomonas methylovora ATCC 21852 (Obligate) in the same assay as above. Settings: methanol-grown cells.
Format: cell-based
Experimental: as §1, §2, §7, §6

Row | Compound | Conversion Rates, sec-alcohol to corresponding ketone
37 | CCCCC(C)O (stereo not shown) [2-Hexanol, 2-hexanol] | 1.0 μmoles/hr/mg protein
38 | CCC(C)O (stereo not shown) [2-Butanol, 2-butanol] | 2.5 μmoles/hr/mg protein

Same assay, conditions: methyl formate-grown cells

Row | Compound | Conversion Rates, sec-alcohol to corresponding ketone
39 | CCCCC(C)O (stereo not shown) [2-Hexanol, 2-hexanol] | 0.60 μmoles/hr/mg protein
40 | CCC(C)O (stereo not shown) [2-Butanol, 2-butanol] | 2.1 μmoles/hr/mg protein

Same assay, conditions: methylamine-grown cells

Row | Compound | Conversion Rates, sec-alcohol to corresponding ketone
41 | CCCCC(C)O (stereo not shown) [2-Hexanol, 2-hexanol] | 0.09 μmoles/hr/mg protein
42 | CCC(C)O (stereo not shown) [2-Butanol, 2-butanol] | 3.2 μmoles/hr/mg protein

Each compound was assayed on Torulopsis sp. Strain A1 (NRRLY-11,419) (assay: sec-alcohols to ketones by cell suspensions of yeasts). Settings: Growth Substrate Ethanol.
Format: cell-based

Row | Compound | Conversion Rate, sec-alcohol to corresponding ketone
43 | CCCCC(C)O (stereo not shown) [2-Hexanol, 2-hexanol] | 0.20 μmoles/hr/mg of protein
44 | CCC(C)O (stereo not shown) [2-Butanol, 2-butanol] | 4.7 μmoles/hr/mg of protein

Same assay, conditions: Growth Substrate Methanol

Row | Compound | Conversion Rate, sec-alcohol to corresponding ketone
45 | CCCCC(C)O (stereo not shown) [2-Hexanol, 2-hexanol] | 0.21 μmoles/hr/mg of protein
46 | CCC(C)O (stereo not shown) [2-Butanol, 2-butanol] | 4.9 μmoles/hr/mg of protein

Same assay, conditions: Growth Substrate Methylamine

Row | Compound | Conversion Rate, sec-alcohol to corresponding ketone
47 | CCCCC(C)O (stereo not shown) [2-Hexanol, 2-hexanol] | 0.12 μmoles/hr/mg of protein
48 | CCC(C)O (stereo not shown) [2-Butanol, 2-butanol] | 4.5 μmoles/hr/mg of protein

Same assay, conditions: Growth Substrate Methylformate

Row | Compound | Conversion Rate, sec-alcohol to corresponding ketone
49 | CCCCC(C)O (stereo not shown) [2-Hexanol, 2-hexanol] | 0.25 μmoles/hr/mg of protein
50 | CCC(C)O (stereo not shown) [2-Butanol, 2-butanol] | 4.9 μmoles/hr/mg of protein

Same assay, conditions: Growth Substrate Propylamine

Row | Compound | Conversion Rate, sec-alcohol to corresponding ketone
51 | CCCCC(C)O (stereo not shown) [2-Hexanol, 2-hexanol] | 0.10 μmoles/hr/mg of protein
52 | CCC(C)O (stereo not shown) [2-Butanol, 2-butanol] | 3.8 μmoles/hr/mg of protein

Source: patent US4250259A, “Microbiological production of ketones from C3 -C6 secondary alcohols” (priority 1979, dated 1981)
